Laboratory results reported in patent US20250367212A1, “PHARMACOTHERAPY FOR OBSESSIVE-COMPULSIVE DISORDER TARGETING DOPAMINE D1 SIGNAL IN STRIATAL STRIOSOMES” (priority 2022, published 2025).
Read-outs that look alike come from different tables or passages of the source.

Legend:
[1] = test system: patients with blepharospasm; conditions: for neurological or neuropsychiatric changes during the drug challenge test: in vivo
[2] = test system: rodent model using fear conditioning; conditions: cited from earlier work
[3] = n=7 per group, 8 weeks, single drug

Compound: CN(C)CCCN1c2ccccc2Sc2ccc(Cl)cc21 [CPZ, chlorpromazine]
- neurological or neuropsychiatric changes during the drug challenge test [1]: No apparent neurological or neuropsychiatric changes
- change in severity of blepharospasm, BSDI, before vs after drug challenge test [1, 3]: No significant changes in severity
- change in severity of blepharospasm, JRS, before vs after drug challenge test [1, 3]: No significant changes in severity
- change in severity of blepharospasm, VAS, before vs after drug challenge test [1, 3]: No significant changes in severity
- change in severity of blepharospasm, mVAS, before vs after drug challenge test [1, 3]: No significant changes in severity

Compound: N[C@@H](Cc1ccc(O)c(O)c1)C(=O)O [L-DOPA, L-3,4-dihydroxyphenylalanine]
- corrected VAS (mVAS), after the drug challenge test ([1]; L-DOPA group, n=7, DOPACOL 1 to 3 tablets/day over 8 weeks, before 141.3±8.7, P<0.05, severity significantly progressed): 178.8±24.3
- neurological or neuropsychiatric changes during the drug challenge test [1]: No apparent neurological or neuropsychiatric changes
- change in severity of blepharospasm, BSDI, before vs after drug challenge test [1, 3]: no severity progressed
- change in severity of blepharospasm, JRS, before vs after drug challenge test [1, 3]: no severity progressed
- change in severity of blepharospasm, VAS, before vs after drug challenge test [1, 3]: no severity progressed

Compound: Br.Cc1cccc(C2CN(C)CCc3c2cc(O)c(O)c3Cl)c1 (stereo not drawn) [SKF83959]
- fear memory ([2]; administration of D1 receptor agonist, Chen et al., Brain Research 2020): long-term loss of fear memory

Compound: CCN1CCCC1CNC(=O)c1cc(S(N)(=O)=O)ccc1OC (stereo not drawn) [sulpiride]
- fear memory ([2]; single injection of D2 receptor antagonist, Ponnusamy et al., Learning & Memory 2005): effective in erasing fear memory
